Literature values as cited in patent US20210386743A1, “USE OF PDE9 INHIBITORS FOR TREATMENT” (The Johns Hopkins University, priority 2018, published 2021).
Like-named read-outs stand apart in the source and are kept apart here.

System: female mice, models of heart disease
Settings: cited from earlier work

In the case of `CCCc1nn(C)c2c(=O)[nH]c(-c3cc(S(=O)(=O)N4CCN(C)CC4)ccc3OCC)nc12` [sildenafil], the “treatment of heart disease” value (female mice with ovaries, several models of heart disease) is given as “successfully treated”, the “treatment of heart disease” value (female mice, ovaries first removed) is given as “totally ineffective” and the “treatment of heart disease” value (female mice, ovaries removed, exogenous estrogen replacement) is given as “rescued”.
